Data published in the NIST ThermoML archive (doi:10.1016/j.fluid.2015.10.026).
± gives the expanded uncertainty stated by the source.

Settings: Liquid, Brillouin light scattering

Q: Which speed of sound (323.15 K) does the source give for `Cc1ccccc1` [toluene] here?
A: The speed of sound was 1200.8 ± 6 m/s.

Q: What about the speed of sound (373.15 K) of the same compound?
A: The speed of sound was 1000 ± 5 m/s.

Q: What about the speed of sound (423.15 K) of the same compound?
A: The speed of sound was 806 ± 5.2 m/s.

Q: What about the speed of sound (473.15 K) of the same compound?
A: Its speed of sound is 616.2 ± 3.3 m/s.

Q: What about the speed of sound (523.15 K) of the same compound?
A: Its speed of sound is 425.5 ± 2.4 m/s.
